Experimental data: patent US20220133728A1, “METHODS FOR TREATING VITILIGO LESIONS HAVING IMPROVED EFFICACY” (ARCUTIS BIOTHERAPEUTICS, INC., priority 2020, published 2022)

Columns and labels:
[1] = tested on: vitiligo lesions; assay: Proof of Concept, double blind, vehicle-controlled study of ARQ-252 cream 0.3% BID with NB-UVB home phototherapy in non-segmental facial vitiligo; assay type: in vivo, human; conditions: applied topically in combination with narrowband UVB phototherapy, compared to vehicle cream plus narrowband UVB
Text: A Proof of Concept, parallel group, double blind, vehicle-controlled study of the safety and efficacy of a 0.3% SHR0302 topical cream of Example 1 (ARQ-252 cream 0.3%) was designed for subjects with non-segmental facial vitiligo. Subjects with non-segmental facial vitiligo applied either ARQ-252 0.3% cream BID or vehicle cream BID to all affected areas of vitiligo on the face, neck, hands, forearms, and elbows. Product was applied to all affected, depigmented areas and, where anatomically possible, treatment extended approximately 3 cm from the border all around. […]
The two patients were assessed by measures including Facial Vitiligo Area and Severity Index (F-VASI), Facial Body Surface Area (F-BSA), Facial/Neck BSA (F/N-BSA), BSA (Hands, Forearms, Elbows), Facial/Neck VASI (F/N-VASI), VASI of the forearms and elbow (FOREARM-VASI) and VASI of the hands only (HAND-VASI). […] VASI is a quantitative clinical tool that is based on a composite estimate of the overall area of vitiligo patches at baseline and the degree of macular repigmentation within these patches over time. […] BSA affected with vitiligo will be assessed as a percentage of the total BSA, and will be determined to the nearest 0.01% using, as guides, the palm plus 5 digits, with fingers tucked together and thumb tucked to the side (handprint), as 1% BSA and the thumb as 0.1% BSA. […]

[2] = molecular target: JAK 1 (Homo sapiens, UniProt P23458); conditions: cited from earlier work
Chain of JAK 1 (P23458 whole entry, species assumed): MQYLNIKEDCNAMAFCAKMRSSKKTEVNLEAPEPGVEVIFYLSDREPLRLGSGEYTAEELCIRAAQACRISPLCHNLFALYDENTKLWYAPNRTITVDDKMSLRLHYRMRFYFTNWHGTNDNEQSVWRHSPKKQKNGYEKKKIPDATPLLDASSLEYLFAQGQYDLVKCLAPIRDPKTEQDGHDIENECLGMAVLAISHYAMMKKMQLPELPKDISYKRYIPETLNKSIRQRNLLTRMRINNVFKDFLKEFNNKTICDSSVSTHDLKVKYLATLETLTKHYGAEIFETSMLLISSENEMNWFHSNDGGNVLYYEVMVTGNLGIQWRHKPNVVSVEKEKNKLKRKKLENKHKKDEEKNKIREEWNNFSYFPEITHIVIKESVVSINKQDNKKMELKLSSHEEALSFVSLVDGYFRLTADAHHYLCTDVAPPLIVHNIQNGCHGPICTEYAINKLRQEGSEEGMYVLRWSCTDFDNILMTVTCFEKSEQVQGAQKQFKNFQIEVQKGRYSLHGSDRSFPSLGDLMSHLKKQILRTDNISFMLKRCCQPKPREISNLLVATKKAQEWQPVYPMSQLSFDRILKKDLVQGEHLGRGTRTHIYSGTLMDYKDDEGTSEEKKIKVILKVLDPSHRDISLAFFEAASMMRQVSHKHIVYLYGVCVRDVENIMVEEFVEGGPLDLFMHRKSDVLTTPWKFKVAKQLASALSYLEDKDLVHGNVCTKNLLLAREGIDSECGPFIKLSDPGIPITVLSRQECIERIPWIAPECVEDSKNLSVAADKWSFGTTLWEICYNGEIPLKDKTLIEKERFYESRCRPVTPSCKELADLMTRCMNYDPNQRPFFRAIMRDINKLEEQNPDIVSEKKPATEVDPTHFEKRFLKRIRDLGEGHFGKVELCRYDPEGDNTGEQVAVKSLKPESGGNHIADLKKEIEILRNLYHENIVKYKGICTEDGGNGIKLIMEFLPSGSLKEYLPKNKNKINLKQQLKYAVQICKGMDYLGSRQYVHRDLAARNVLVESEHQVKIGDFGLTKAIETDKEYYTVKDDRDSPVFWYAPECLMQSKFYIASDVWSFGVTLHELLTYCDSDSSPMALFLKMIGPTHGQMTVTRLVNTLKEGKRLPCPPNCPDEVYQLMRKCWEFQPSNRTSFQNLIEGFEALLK

**Q.** Which “repigmentation of vitiligo lesions” value [1] does the source give for `COc1nsc(NC(=O)N2C[C@H]3C[C@H](N(C)c4ncnc5[nH]ccc45)C[C@H]3C2)n1` [SHR0302, (3aR,5S,6aS)—N-(3-methoxyl-1,2,4-thiadiazol-5-yl)-5-(methyl(7H-pyrrolo[2,3-d]pyrimidin-4-yl)amino)hexahydrocyclopenta[c]pyrrole-2(1H)-carboxamide] here?
**A.** dramatically repigmented

**Q.** And the “inhibition of JAK 1” value [2]?
**A.** potent

**Q.** And the “selectivity for JAK1 over JAK2” value [2]?
**A.** high selectively for JAK1 over JAK2
